Series [1] deals with acute myelocytic leukemia cell line (AML) HL-60. The series can be described thus: Effect on apoptosis, Western Blot of PARP and Caspase 3 shear. In kind it is cell-based. As to conditions: HL-60, 0.01-0.1 μM, 24 hours. The text has this: (§1) Western Blot was used to detect the effects of drugs in different concentrations on DNA repair enzyme polyadenylation diphosphate-ribose polymerase PARP and protein shear of cysteine-containing aspartate proteolytic enzyme Caspase 3 at different time intervals.

The subject of series [2] is acute myelocytic leukemia cell line (AML) OCI-AML-3. Described as above. In kind it is cell-based. To be noted: OCI-AML-3, 0.01-0.1 μM, 24 hours.
Excerpt: as §1

The test system of series [3] is acute myelocytic leukemia cell line (AML) MV4-11. The description is as above. In kind it is cell-based. To be noted: MV4-11, 0.01-0.1 μM, 24 hours.
Excerpt: as §1

Series [4] concerns acute promyelocytic leukemia cell line NB-4. The series is described as above. The class given is cell-based. To be noted: NB-4, 0.01-0.1 μM, 24 hours.
Excerpt: as §1

The subject of series [5] is acute myeloid leukemia cell line MOLM13. The series can be described thus: Cancer cell growth, Cell Titer-Glo cell viability assay, 72 hours. The class given is cell-based. To be noted: Homo sapiens; MOLM-13, 72 hours. Summed up:
(§2)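 Read-out: luminescent ATP measurement (CellTiter-Glo) as proxy for live cells; GI50/IC50 derived from it.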

Series [6] concerns human non-small cell lung cancer cell HCC827. The series is described as above. The class given is cell-based. To be noted: HCC827, 72 hours. Summed up: as §2
The test system of series [7] is human lung cancer cell H3122. The series is described as above. The class given is cell-based. As to conditions: NCI-H3122, H3122, 72 hours. The gist of the method: as §2
For series [8], the system named is human non-small cell lung cancer cell H358. Described as above. In kind it is cell-based. As to conditions: NCI-H358, H358, 72 hours. Summed up: as §2
In the next series the test system is hamster lung cell CHL. Described as above. In kind it is cell-based. The gist of the method:
as §2

The test system of series [9] is human breast cancer cell SK-Br-3. The description is as above. To be noted: SK-Br-3, 72 hours. The class given is cell-based. Summed up:
as §2

For series [10], the system named is human small cell lung cancer cell H209. The description is as above. In kind it is cell-based. As to conditions: NCI-H209, H209, 72 hours. Summed up: as §2
Series [11] relates to human breast cancer cell MDA-MB-231. Described as above. The class given is cell-based. To be noted: MDA-MB-231, 72 hours. The gist of the method:
as §2

Series [12] deals with human leukemia cell Nomo-1. The series is described as above. In kind it is cell-based. To be noted: Homo sapiens; Nomo-1, 72 hours. Summed up:
as §2

In series [13] the test system is acute promyelocytic leukemia cell line NB-4. Described as above. The class given is cell-based. To be noted: NB4, 72 hours. Summed up:
as §2

In series [14] the test system is human non-small cell lung cancer cell H1975. Described as above. The class given is cell-based. As to conditions: NCI-H1975, H1975, 72 hours. The gist of the method: as §2
Series [15] relates to human non-small cell lung cancer cell H2122. The series is described as above. In kind it is cell-based. To be noted: NCI-H2122, H2122, 72 hours. Summed up: as §2
Series [16] concerns acute myelocytic leukemia cell line (AML) HL-60. The series can be described thus: Effect on cell cycle distribution, PI staining, flow cytometry. To be noted: HL-60, 0.01-0.1 μM, 12, 24 or 48 hours. In kind it is cell-based. How it is done:
(§3) In order to study in which cycle the cells were prevented after administration, in the three cell lines, acute promyelocytic leukemia cell line NB-4, acute myelocytic leukemia cell line (AML) HL-60, and acute myelocytic leukemia cell line (AML) MV4-11, the effects of compound 1 on the cell cycle distribution of these cell lines were tested. […] The cell cycle distribution was measured by flow cytometry (BD FACS Calibur).
Background: In flow cytometry, cells or beads pass a laser one at a time.

The subject of series [17] is acute myelocytic leukemia cell line (AML) MV4-11. The series is described as above. In kind it is cell-based. To be noted: MV4-11, 0.01-0.1 μM, 12, 24 or 48 hours. How it is done: as §3
For series [18], the system named is acute promyelocytic leukemia cell line NB-4. The series is described as above. In kind it is cell-based. To be noted: NB-4, 0.01-0.1 μM, 12, 24 or 48 hours. How it is done: as §3
Series [19] can be described thus: Body weight of mice in the MV4-11 mouse model. In kind it is in vivo. As to conditions: orally per day, Bal b/c mice. On the procedure:
24 Bal b/c female mice, 4-6 weeks, were purchased from Shanghai Slack Laboratory Animals Co., Ltd. and kept in SPF laboratory. The drinking water and padding were aseptically treated by autoclaving. All operations were carried out under aseptic conditions. On day 0, 5×10^6MV4-11 acute granulocyte leukemia cells (purchased from ATCC) were subcutaneously injected into the left side of all mice' back. Starting on day 15, all mice were divided into four groups (6 mice per group), methyl cellulose (HKI) solvent was orally administered to the first group of mice per day; compound 1 at a dose of 10 mg/kg mice body weight was orally administered to the second group of mice per day; compound 1 at a dose of 20 mg/kg mice body weight was orally administered to the third group of mice per day; compound 1 at a dose of 30 mg/kg mice body weight was orally administered to the fourth group of mice per day. From the start of administration, the length/width of the subcutaneous tumor was measured with a vernier caliper every day, and the body weight of the mouse was recorded every day, and the effect of compound 1 on the body weight of the mouse was observed. […] The trend of subcutaneous tumor growth was counted within day 16 to day 43, and the tumor volume was calculated as: length×width×width/2 mm^3.

Series [20] has as its system human non-small cell lung cancer cells, human small cell lung cancer cells, lung adenocarcinoma cells, and breast cancer cells. The experiment in a line: Cancer cell growth, cells of cancer type other than hematological cancer as a panel. In kind it is cell-based. As to conditions: lung and breast cancer cells of table 3. The text has this: In the examples, we used acute myelocytic leukemia (AML) OCI-AML-3, acute promyelocytic leukemia cell line NB-4, MDS-RAEB (myelodysplastic syndrome-excess blasts type) cell line SKM-1, human leukemia cell Nomo-1, acute myeloid leukemia cell line MOLM14, acute myeloid leukemia cell line MOLM13, acute myeloid leukemia cell line MV4-11, acute myeloid leukemia cell line HL-60, acute myeloid leukemia cell line OCI-AML-2, histiocytic lymphoma U-937, acute B cell leukemia cell line MEC-1, acute B cell leukemia cell line MEC-2, acute megakaryoblastic leukemia CMK, hamster lung cell CHL, hamster ovary cell CHO, human non-small cell lung cancer cell H1975, human non-small cell lung cancer cell H358, human small cell lung cancer cell H209, human lung adenocarcinoma cell H1395, human non-small cell lung cancer cell PC-9, human lung cancer cell H3122, human non-small cell lung cancer cell H2122, human non-small cell lung cancer cell H1915, human lung adenocarcinoma cell H1355, human non-small cell lung cancer cell HCC827, human breast cancer cell MDA-MB-231, human breast cancer cell MDA-MB-468, human breast cancer cell MCF-7, human breast cancer cell T47D, human breast cancer cell SK-Br-3, the above cells were purchased from ATCC. […]

Results on one molecule are retold here after patent publication US10952999B2, “Inhibitor of cyclin-dependent kinase CDK9” (GENFLEET THERAPEUTICS (SHANGHAI) INC., priority 2017, dated 2021).

In general, GI50 refers to the concentration at which growth is held to half of that of the control. Broadly, the IC50 is the point on the concentration scale where inhibition reaches its midpoint. The low end stands for greater potency in that assay, the high end for weaker potency in that assay. With `COC[C@@H](C)N[C@H]1CC[C@H](Nc2cc(-c3csc(NCC4(C#N)CCOCC4)n3)c(Cl)cn2)CC1` [Compound 1, 4-(((4-(5-chloro-2-(((1R,4r)-4-(((R)-1-methoxypropyl-2-yl)amino)cyclohexyl)amino)pyridin-4-yl)thiazol-2-yl)amino)methyl)tetrahydro-2H-pyran-4-carbonitrile], the “apoptosis (shear of PARP or Caspase 3)” value in series [1], in series [2], in series [3] and in [4] was “could cause apoptosis” throughout. The concentration for 50% growth inhibition (GI50) in series [5] worked out at 25 nM; with hamster lung cell CHL (CHL, 72 hours), 1100 nM; in series [12], 45 nM; in series [13], 35 nM. Also, the IC50 in series [6] amounted to 60 nM; in series [7] it was 11 nM; in [8] it was 43 nM; in series [9], 40 nM; in [10] it was 86 nM; in series [11] it was 74 nM. The IC50 in [14] was found to be 42 nM; in series [15] it was 49 nM. Also, the “inhibitory effect on normal cell CHL (in words)” value in the series on hamster lung cell CHL (CHL cells) is “no inhibitory effect”. For the same molecule, the “effect on the cell cycle” value in series [16], in series [17] and in [18] was “blocked the cells in G0-G1 phase” in each case. Moreover, the “effect on the body weight of mice” value in series [19] (high dose group (20, 30 mg/kg)) was “affected the body weight”; in series [19] (low dose group (10 mg/kg)) it was “no significant effect”. The “inhibitory effects on cancer cells tested (in words)” value in [20] is listed as “significant inhibitory effects”.
